Calls of active or inactive are those of the source. No cut-off for these calls is given here.
How the values were obtained:
Left cardiac atrium [1] = experiment: Negative ionotropic activity in electrically-paced Cavia porcellus (guinea pig) left atrium measured after 60 min by isometric transducer analysis in presence of dihydroergocristine; format: functional, tissue-based
Left cardiac atrium [2] = experiment: Negative ionotropic activity in electrically-paced Cavia porcellus (guinea pig) left atrium measured after 60 min by isometric transducer analysis in presence of AM 630; format: functional, tissue-based
[3] = target: T1, Muscarinic acetylcholine receptor M2 (Homo sapiens) (UniProt P08172); experiment: Allosteric modulation of Homo sapiens (human) recombinant muscarinic M2 receptor expressed in CHO cells assessed as inhibition of carbachol-induced [35S]GTPgammaS binding; format: functional, cell-based
T1 sequence (whole entry): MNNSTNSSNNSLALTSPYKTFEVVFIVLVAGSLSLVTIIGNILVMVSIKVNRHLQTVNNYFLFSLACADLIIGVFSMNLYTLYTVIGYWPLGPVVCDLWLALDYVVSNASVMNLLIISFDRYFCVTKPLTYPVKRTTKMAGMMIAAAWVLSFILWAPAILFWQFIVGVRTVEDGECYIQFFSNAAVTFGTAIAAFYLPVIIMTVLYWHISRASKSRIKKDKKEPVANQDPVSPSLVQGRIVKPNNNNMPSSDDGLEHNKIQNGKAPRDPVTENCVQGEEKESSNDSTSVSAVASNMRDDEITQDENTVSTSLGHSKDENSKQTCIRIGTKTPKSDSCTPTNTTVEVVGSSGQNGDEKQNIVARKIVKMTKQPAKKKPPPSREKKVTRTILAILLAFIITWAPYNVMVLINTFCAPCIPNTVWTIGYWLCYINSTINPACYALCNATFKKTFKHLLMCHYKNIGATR

[4] = target: T2, Muscarinic acetylcholine receptor M5 (Homo sapiens) (UniProt P08912); experiment: Binding affinity to Homo sapiens (human) recombinant muscarinic M5 receptor expressed in CHO cells assessed as [35S]GTPgammaS binding; format: functional, cell-based
T2 sequence (whole entry): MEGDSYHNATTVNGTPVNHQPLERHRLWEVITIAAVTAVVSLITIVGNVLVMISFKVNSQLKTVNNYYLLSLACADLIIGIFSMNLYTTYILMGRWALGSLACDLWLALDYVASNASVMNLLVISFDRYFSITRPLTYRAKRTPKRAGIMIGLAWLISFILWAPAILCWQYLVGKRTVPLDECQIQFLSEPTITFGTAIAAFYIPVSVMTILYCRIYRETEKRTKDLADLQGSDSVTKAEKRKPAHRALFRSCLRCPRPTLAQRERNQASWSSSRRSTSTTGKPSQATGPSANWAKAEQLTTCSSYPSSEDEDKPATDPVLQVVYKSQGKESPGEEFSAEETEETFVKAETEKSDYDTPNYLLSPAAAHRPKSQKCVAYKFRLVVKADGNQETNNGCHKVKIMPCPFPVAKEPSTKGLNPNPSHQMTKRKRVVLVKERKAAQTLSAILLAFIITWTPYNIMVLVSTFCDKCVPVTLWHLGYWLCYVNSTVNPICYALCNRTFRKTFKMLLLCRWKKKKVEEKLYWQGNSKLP

[5] = target: T1, Muscarinic acetylcholine receptor M2 (Homo sapiens); experiment: Allosteric modulation of Homo sapiens (human) recombinant muscarinic M2 receptor expressed in CHO cells assessed as inhibition of N-[3H]methylscopalamine dissociation at 20 uM incubated at 1 hr post N-[3H]methylscopalamine addition measured after 5 min by filter binding assay; format: cell-based
[6] = target: T3, Muscarinic acetylcholine receptor M4 (Homo sapiens) (UniProt P08173); experiment: Allosteric modulation of Homo sapiens (human) recombinant muscarinic M4 receptor expressed in CHO cells assessed as inhibition of carbachol-induced [35S]GTPgammaS binding; format: functional, cell-based
T3 sequence (whole entry): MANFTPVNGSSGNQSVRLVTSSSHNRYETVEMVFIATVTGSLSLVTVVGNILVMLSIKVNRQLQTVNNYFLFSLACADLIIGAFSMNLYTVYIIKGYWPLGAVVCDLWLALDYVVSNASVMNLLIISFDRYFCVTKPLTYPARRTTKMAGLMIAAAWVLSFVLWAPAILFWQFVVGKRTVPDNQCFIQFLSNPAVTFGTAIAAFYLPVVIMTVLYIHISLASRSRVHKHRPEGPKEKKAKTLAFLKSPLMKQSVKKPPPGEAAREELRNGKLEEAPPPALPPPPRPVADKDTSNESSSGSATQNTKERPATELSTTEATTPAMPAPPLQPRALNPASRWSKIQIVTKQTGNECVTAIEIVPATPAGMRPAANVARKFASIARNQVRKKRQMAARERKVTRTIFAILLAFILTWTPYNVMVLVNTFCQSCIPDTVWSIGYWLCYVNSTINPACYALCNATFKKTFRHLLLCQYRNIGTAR

Right cardiac atrium [7] = experiment: Negative ionotropic activity in electrically-paced Cavia porcellus (guinea pig) right atrium measured after 60 min by isometric transducer analysis in presence of 4-DAMP mustard; format: functional, tissue-based
Right cardiac atrium [8] = experiment: Negative ionotropic activity in electrically-paced Cavia porcellus (guinea pig) right atrium measured after 60 min by isometric transducer analysis in presence of prazosin; format: functional, tissue-based
Right cardiac atrium [9] = experiment: Negative ionotropic activity in electrically-paced Cavia porcellus (guinea pig) right atrium measured after 60 min by isometric transducer analysis in presence of AM 630; format: functional, tissue-based
Right cardiac atrium [10] = experiment: Negative ionotropic activity in electrically-paced Cavia porcellus (guinea pig) right atrium measured after 60 min by isometric transducer analysis in presence of AM 251; format: functional, tissue-based
Right cardiac atrium [11] = experiment: Negative […] activity in electrically-paced Cavia porcellus (guinea pig) right atrium measured after 60 min by isometric transducer analysis in presence of thioperamide; format: functional, tissue-based
Right cardiac atrium [12] = experiment: Negative ionotropic activity in electrically-paced Cavia porcellus (guinea pig) right atrium measured after 60 min by isometric transducer analysis in presence of ANR 83; format: functional, tissue-based
Left cardiac atrium [13] = experiment: Negative ionotropic activity in electrically-paced Cavia porcellus (guinea pig) left atrium measured after 60 min by isometric transducer analysis in presence of 4-DAMP mustard; format: functional, tissue-based
[14] = target: Muscarinic acetylcholine receptor M3 (Homo sapiens) (UniProt P20309); experiment: Binding affinity to Homo sapiens (human) recombinant muscarinic M3 receptor expressed in CHO cells assessed as [35S]GTPgammaS binding; format: functional, cell-based
Right cardiac atrium [15] = experiment: Reversible negative ionotropic activity in electrically-paced Cavia porcellus (guinea pig) right atrium incubated for 30 min followed by compound-washout measured after 3 hr by isometric transducer analysis; format: functional, tissue-based
Right cardiac atrium [16] = experiment: Negative […] activity in electrically-paced Cavia porcellus (guinea pig) right atrium assessed as effect on force measured after 60 min by isometric transducer analysis in presence of benextramine/4-DAMP mustard relative to N-dodecyl lysine amide; format: functional
Right cardiac atrium [17] = experiment: Negative […] activity in electrically-paced Cavia porcellus (guinea pig) right atrium assessed as effect on force measured after 60 min by isometric transducer analysis in presence of benextramine/4-DAMP mustard; format: functional, tissue-based; conditions: 1 h
Right cardiac atrium [18] = experiment: Negative […] activity in electrically-paced Cavia porcellus (guinea pig) right atrium assessed as effect on force measured after 60 min by isometric transducer analysis in absence of benextramine/4-DAMP mustard; format: functional, tissue-based; conditions: 1 h
Left cardiac atrium [19] = experiment: Negative ionotropic activity in electrically-paced Cavia porcellus (guinea pig) left atrium measured after 60 min by isometric transducer analysis in presence of benextramine/4-DAMP mustard; format: functional, tissue-based; conditions: 1 h
Left cardiac atrium [20] = experiment: Negative ionotropic activity in electrically-paced Cavia porcellus (guinea pig) left atrium measured after 60 min by isometric transducer analysis in absence of benextramine/4-DAMP mustard relative to N-dodecyl lysine amide; format: functional

Sequence of Muscarinic acetylcholine receptor M3 (Homo sapiens) (P20309 whole entry, looked up): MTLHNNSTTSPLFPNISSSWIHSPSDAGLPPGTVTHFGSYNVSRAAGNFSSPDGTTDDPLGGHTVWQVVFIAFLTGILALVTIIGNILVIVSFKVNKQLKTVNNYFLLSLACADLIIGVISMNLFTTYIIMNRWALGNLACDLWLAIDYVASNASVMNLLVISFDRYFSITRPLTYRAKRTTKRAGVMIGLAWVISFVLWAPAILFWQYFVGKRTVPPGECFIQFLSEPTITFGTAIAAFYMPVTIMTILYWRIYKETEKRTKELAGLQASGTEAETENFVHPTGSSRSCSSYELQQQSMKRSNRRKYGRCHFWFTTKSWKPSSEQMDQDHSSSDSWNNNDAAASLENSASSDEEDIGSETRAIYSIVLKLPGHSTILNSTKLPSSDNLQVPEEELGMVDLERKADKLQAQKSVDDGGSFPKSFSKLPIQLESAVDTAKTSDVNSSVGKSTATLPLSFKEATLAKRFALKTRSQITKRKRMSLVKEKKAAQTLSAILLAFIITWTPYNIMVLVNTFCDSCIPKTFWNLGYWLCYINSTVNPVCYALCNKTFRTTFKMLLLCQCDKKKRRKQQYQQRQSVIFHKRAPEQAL

| Compound | Activity (Left cardiac atrium [1]) | Activity (Left cardiac atrium [2]) | Activity [3] | Activity [4] | inhibition [5] | Activity [6] | Activity (Right cardiac atrium [7]) | Activity (Right cardiac atrium [8]) | Activity (Right cardiac atrium [9]) | Activity (Right cardiac atrium [10]) | Activity (Right cardiac atrium [11]) | Activity (Right cardiac atrium [12]) | Activity (Left cardiac atrium [13]) | Activity [14] | Activity (Right cardiac atrium [15]) | Efficacy (Right cardiac atrium [16]) [%] | EC50 (Right cardiac atrium [17]) [nM] | EC50 (Right cardiac atrium [18]) [nM] | EC50 (Left cardiac atrium [19]) [nM] | Efficacy (Left cardiac atrium [20]) [%] |
| --- | --- | --- | --- | --- | --- | --- | --- | --- | --- | --- | --- | --- | --- | --- | --- | --- | --- | --- | --- | --- |
| COc1ccccc1CN1CCC(C2CCN(C(=O)CCCCCCC(=O)N3CCC(C4CCN(Cc5ccccc5OC)CC4)CC3)CC2)CC1 [PIPERTRAMINE AMIDE] | Active | Active | Active | inactive | Active | Active | Active | Active | Active | Active | Active | Active | Active | inactive | inactive | 82 | 3.16 | 3.89 | 0.589 | 90 |
| COc1ccccc1CN1CCC(C2CCN(CCCCCCCCN3CCC(C4CCN(Cc5ccccc5OC)CC4)CC3)CC2)CC1 [PIPERTRAMINE] | Active | Active | Active | inactive | Active | Active | Active | Active | Active | Active | Active | Active | Active | inactive | inactive | 72 | 0.263 | 0.275 | 0.331 | 96 |

From ChEMBL document CHEMBL3044753, “Polyamines May Modulate Both G Protein-Coupled Receptors and G Proteins” (Med Chem Res, 2004)
